For one assay, the system named is RSV A2 strain. Nature of the assay: In vitro CPE (CytoPathic Effect) inhibition effect evaluation test, RSV type A. The class given is cell-based. The gist of the method: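 HEp-2 cells (2.4×10^5 cells/mL, 2% FBS E-MEM) were infected with RSV alongside 3-fold compound dilutions and incubated at 37 °C, 4 days for A2 and 5 days for B Wash/18537. Viable cells quantified by CellTiter-Glo 2.0 luminescence; EC50 by nonlinear regression as 50% CPE inhibition.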

Assay [1] concerns RSV B (Wash/18537 strain). The assay can be described thus: In vitro CPE (CytoPathic Effect) inhibition effect evaluation test, RSV type B. The class given is cell-based. How it is done:
The test sample is diluted in advance to an appropriate concentration with DMSO, and 3-fold series of serial dilutions were prepared on a 384-well plate (0.32 μL/well). HEp-2 cells (CCL-23; ATCC) adjusted at appropriate number (2.4×10^5 cells/mL) in 2% FBS E-MEM (prepared by adding kanamycin and FBS to Eagle's Minimum Essential Medium; Invitrogen) were added at 12.5 μL/well to the 384-well plate previously aliquoted with the test samples. The RSV A2 strain was diluted to an appropriate concentration in a culture medium and added to the 384-well plate containing the test sample at 12.5 μL/well. The culture medium was added additionally to the 384-well plate, and the test was started with 50 μL/well. Control wells were prepared with only virus-free culture medium. The plate was incubated in a 5% CO2 incubator at 37° C. for 4 days, and the plate was then placed at room temperature for 30 minutes. CellTiter-Glo (registered trademark) 2.0 assay (Promega) was added at 15 μL/well, mixed for 30 seconds, and the plate was placed for approximately 1 hour. The luminescent signal was then measured by EnVision (PerkinElmer). The inhibitory effect of the test agents on RSV-induced CPE was calculated as 0% and 100% inhibition rate for each sample concentration based on the level of remaining viable cells by CellTiter-Glo (registered trademark) 2.0, with the EC50 value for each compound calculated by nonlinear regression as the concentration that inhibits RSV-induced CPE by 50%. In the case of evaluation against RSV type B, RSV B (Wash/18537 strain) was infected in the same manner as the type A, cultured for 5 days, and quantitated in the same manner as for the A2 strain.
A general note: Cytopathic effects are the visible damage that an infection or toxin causes in cultured cells.

Setting [2] is: human respiratory syncytial virus, inhibitory effect against RSV type A (RSV A2 strain), HEp-2 cells, CPE inhibition, read-out: EC50.
The mark [3] stands for this setting: human respiratory syncytial virus, inhibitory effect against RSV type B, CPE inhibition, read-out: EC50.
The mark [4] stands for this setting: inhibitory effect against RSV type A (RSV A2 strain), HEp-2 cells, CPE inhibition, read-out: EC50.
Setting [5] is: inhibitory effect against RSV type B, CPE inhibition, read-out: EC50.

Molecules are shown by their SMILES. pEC50: −log10 of the molar value. Like-named read-outs stand apart in the source and are kept apart here.

Experimental findings from patent US12528790B2, “Amide derivative having antiviral activity” (Shionogi & Co., Ltd., priority 2020, dated 2026) are described below.

As to `Cn1cc2c(n1)CCC(Oc1ccc3c(c1)C1(CCOCC1)CN3c1ncc(C(=O)NC3(C(=O)O)C4CC5CC(C4)CC3C5)c(C(F)(F)F)n1)C2` (racemic) [Compound I-189], the pEC50 (with RSV A2 strain (setting [2]); in assay [1] (setting [3])) was over 8.00 each time.

As to `O=C(NC1(C(=O)O)C2CC3CC(C2)CC1C3)c1cnc(N2CC3(CCOC3)c3cc(OC4CCN(c5ncccn5)CC4)ccc32)nc1C(F)(F)F` (racemic) [Compound I-257], the pEC50 (with RSV A2 strain (setting [2]); in assay [1] (setting [3])) was over 8.00 in each case.

In the case of `COCC(C)n1cc(-c2ncc(C(=O)NC3(C(=O)O)C4CC5CC(C4)CC3C5)c(C(F)(F)F)n2)c2ccc(OC3CCN(c4ncc(F)cn4)CC3)cc21` (racemic) [Compound I-430], the pEC50 (with RSV A2 strain (setting [2]); in assay [1] (setting [3])) was over 8.00 in each case.

With `O=C(NC1(C(=O)O)C2CC3CC(C2)CC1C3)c1cnc(N2CC3(CCOC3)c3cc(OCC(F)(F)F)ccc32)nc1C(F)(F)F` (racemic) [Compound I-466], the pEC50 is over 8.00 in the assay with RSV A2 strain (setting [2]) and 7.00 to 8.00 in assay [1] (setting [3]).

For the compound `O=C(NC1(C(=O)O)C2CC3CC(C2)CC1C3)c1cnc(N2CC3(CCOC3)c3cc(OC4CCN(CC(F)(F)F)CC4)ccc32)nc1C(F)(F)F` (racemic) [Compound I-467], the pEC50 (in the assay with RSV A2 strain (setting [2]); in assay [1] (setting [3])) was over 8.00 throughout.

On to `O=C(NC1(C(=O)O)C2CC3CC(C2)CC1C3)c1cnc(N2CC3(CCCCC3)c3cc(OC4CCC(=NOC5CC(F)(F)C5)CC4)ccc32)nc1C(F)(F)F` (racemic) [Compound I-475], for which the pEC50 is over 8.00 in the assay on RSV A2 strain (setting [4]) and 7.00 to 8.00 in assay [1] (setting [5]).

As to `O=C(NC1(C(=O)O)C2CC3CC(C2)CC1C3)c1cnc(N2CC(C3CCCC3)c3cc(OC4CCN(c5ncc(F)cn5)CC4)ccc32)nc1C(F)(F)F` (racemic) [Compound I-486], the pEC50 in the assay with RSV A2 strain (human respiratory syncytial virus, HEp-2, 96 h, read-out: EC50, inhibitory effect against RSV type A (CPE inhibition)) was 8.52; in assay [1] (human respiratory syncytial virus, HEp-2, 120 h, HEp-2 cells, RSV B (Wash/18537 strain), 5 days, CellTiter-Glo, read-out: EC50, inhibitory effect against RSV type B (CPE inhibition)) it was 7.55.

On to `O=C(NC1(C(=O)O)C2CC3CC(C2)CC1C3)c1cnc(N2CC(C3CCCC3)c3cc(OC4CCN(CC(F)(F)F)CC4)ccc32)nc1C(F)(F)F` (racemic) [Compound I-487], for which the values for the pEC50 (in the assay on RSV A2 strain (setting [2]); in assay [1] (setting [3])) were over 8.00 and 7.00 to 8.00, respectively.

On to `COc1cccc(COc2ccc3c(c2)CCN3c2ncc(C(=O)NC3(C(=O)O)CC4CCC3C4)c(C(F)(F)F)n2)c1` (single isomer, unassigned) [Compound I-16], for which the pEC50 in the assay with RSV A2 strain (setting [2]) is over 8.00; in assay [1] (setting [3]) it was 7.00 to 8.00.

In the case of `Cn1ncc2c1CCC(Oc1ccc3c(c1)C1(CCOCC1)CN3c1ncc(C(=O)NC3(C(=O)O)C4CC5CC(C4)CC3C5)c(C(F)(F)F)n1)C2` (single isomer, unassigned) [Compound I-190], the pEC50 (with RSV A2 strain (setting [2]); in assay [1] (setting [3])) was over 8.00 in each case.

For `O=C(NC1(C(=O)O)C2CC3CC(C2)CC1C3)c1ccc(-c2cn(C3CCC(F)CC3)c3cc(OC4CCN(c5ncc(F)cn5)CC4)ccc23)nc1C(F)(F)F` (single isomer, unassigned) [Compound I-397], the pEC50 (in the assay on RSV A2 strain (setting [2]); in assay [1] (setting [3])) was over 8.00 throughout.

On to `O=C(NC1(C(=O)O)C2CC3CC(C2)CC1C3)c1cnc(-c2cn(C3CCC(F)(F)CC3)c3cc(OC4CC(N5CC(F)(F)C5)C4)ccc23)nc1C(F)(F)F` (single isomer, unassigned) [Compound I-412], for which the pEC50 is over 8.00 in the assay with RSV A2 strain (setting [2]) and 7.00 to 8.00 in assay [1] (setting [3]).

As for `O=C(NC1(C(=O)O)C2CC3CC(C2)CC1C3)c1cnc(-c2cn(C3CCC(F)(F)CC3)c3cc(OC4CC(N5CC(F)(F)C5)C4)ccc23)nc1C(F)(F)F` (single isomer, unassigned) [Compound I-413], the pEC50 in the assay with RSV A2 strain (setting [4]) is over 8.00; in assay [1] (setting [5]), 7.00 to 8.00.

`COC1CCC(n2cc(-c3ncc(C(=O)NC4(C(=O)O)C5CC6CC(C5)CC4C6)c(C(F)(F)F)n3)c3ccc(OC4CCN(c5ncc(F)cn5)CC4)cc32)CC1` (single isomer, unassigned) [Compound I-423]: the pEC50 (in the assay on RSV A2 strain (setting [2]); in assay [1] (setting [3])) was over 8.00 each time.

With `O=C(NC1(C(=O)O)C2CC3CC(C2)CC1C3)c1ccc(-c2cn(C3CC4C=CC(C3)O4)c3cc(OC4CCN(c5ncc(F)cn5)CC4)ccc23)nc1C(F)(F)F` (single isomer, unassigned) [Compound I-434], the pEC50 (in the assay on RSV A2 strain (setting [2]); in assay [1] (setting [3])) was over 8.00 throughout.

For the compound `C/C(=N\OC1CCC(F)(F)CC1)c1ccc2c(c1)C1(CCCCC1)CN2c1ncc(C(=O)NC2(C(=O)O)C3CC4CC(C3)CC2C4)c(C(F)(F)F)n1` (single isomer, unassigned) [Compound I-476], the pEC50 was 7.00 to 8.00 in the assay with RSV A2 strain (setting [2]) and 5.30 to 7.00 in assay [1] (setting [3]).

As to `C/C(=N\OC1CC(F)(F)C1)c1ccc2c(c1)C1(CCCCC1)CN2c1ncc(C(=O)NC2(C(=O)O)C3CC4CC(C3)CC2C4)c(C(F)(F)F)n1` (single isomer, unassigned) [Compound I-477], the figures for the pEC50 (in the assay with RSV A2 strain (setting [2]); in assay [1] (setting [3])) were 7.00 to 8.00 and 5.30 to 7.00, respectively.

As to `O=C(NC1(C(=O)O)C2CC3CC(C2)CC1C3)c1cnc(-c2cn(C3CCC(F)(F)CC3)c3cc(OC4CCC(OC5CC5)CC4)ccc23)nc1C(F)(F)F` (single isomer, unassigned) [Compound I-478], the pEC50 (in the assay on RSV A2 strain (setting [2]); in assay [1] (setting [3])) was over 8.00 throughout.

For `O=C(NC1(C(=O)O)C2CC3CC(C2)CC1C3)c1cnc(-c2cn(C3CCC(F)(F)CC3)c3cc(OC4CCC(OC5CC5)CC4)ccc23)nc1C(F)(F)F` (single isomer, unassigned) [Compound I-480], the pEC50 in the assay with RSV A2 strain (setting [4]) is over 8.00; in assay [1] (setting [5]), 7.00 to 8.00.

As for `O=C(NC1(C(=O)O)C2CC3CC(C2)CC1C3)c1cnc(-c2cn(C3CCC(F)CC3)c3cc(O[C@H]4CC[C@H](N5CC(F)(F)C5)CC4)ccc23)nc1C(F)(F)F` (single isomer, unassigned) [Compound I-509], the pEC50 (in the assay with RSV A2 strain (setting [2]); in assay [1] (setting [3])) was over 8.00 in each case.

For the compound `O=C(NC1(C(=O)O)C2CC3CC(C2)CC1C3)c1cnc(-c2cn(C3CCC(F)(F)CC3)c3cc(OC4CC(CN5CC(F)(F)C5)C4)ccc23)nc1C(F)(F)F` (single isomer, unassigned) [Compound I-516], the values for the pEC50 (in the assay with RSV A2 strain (setting [2]); in assay [1] (setting [3])) were over 8.00 and 7.00 to 8.00, respectively.

With `CC(F)(F)c1nc(-c2cn(C3CCC(F)CC3)c3cc(O[C@H]4CC[C@H](N5CC(F)(F)C5)CC4)ccc23)ncc1C(=O)NC1(C(=O)O)C2CC3CC(C2)CC1C3` (single isomer, unassigned) [Compound I-568], the pEC50 (with RSV A2 strain (setting [2]); in assay [1] (setting [3])) was over 8.00 each time.

Regarding `O=C(NC1(C(=O)O)C2CC3CC(C2)CC1C3)c1ccc(-c2cn(C3CCC(F)CC3)c3cc(O[C@H]4CC[C@H](N5CC(F)(F)C5)CC4)ccc23)nc1C(F)(F)F` (single isomer, unassigned) [Compound I-579], the pEC50 (with RSV A2 strain (setting [2]); in assay [1] (setting [3])) was over 8.00 each time.

With `CC(F)(F)c1nc(-c2cn(C3CCC(F)(F)CC3)c3cc(O[C@H]4C[C@@H](N5CC(F)(F)C5)C4)ccc23)ncc1C(=O)NC1(C(=O)O)C2CC3CC(C2)CC1C3` (single isomer, unassigned) [Compound I-619], the pEC50 (in the assay with RSV A2 strain (setting [2]); in assay [1] (setting [3])) was over 8.00 each time.

On to `CC(F)(F)c1nc(-c2cn(C3CCOCC3)c3cc(OC4CC(N5CC(F)(F)C5)C4)ccc23)ncc1C(=O)NC1(C(=O)O)C2CC3CC(C2)CC1C3` (single isomer, unassigned) [Compound I-621], for which the pEC50 (in the assay with RSV A2 strain (setting [2]); in assay [1] (setting [3])) was over 8.00 in each case.

As for `COCCCCOc1ccc2c(c1C)CCN2c1ncc(C(=O)NC2(C(=O)O)CCCCC2)c(C(F)(F)F)n1` [Compound I-1], the negative logarithm of the EC50 (pEC50) is 7.00 to 8.00 with RSV A2 strain (setting [2]) and 5.30 to 7.00 in assay [1] (setting [3]).

As to `COCCCCOc1ccc2c(c1)CCN2c1ncc(C(=O)NC2(C(=O)O)CCCCC2)c(C(F)(F)F)n1` [Compound I-2], the figures for the pEC50 (with RSV A2 strain (setting [2]); in assay [1] (setting [3])) were 7.00 to 8.00 and 5.30 to 7.00, respectively.

Regarding `COc1cccc(COc2ccc3c(c2)CCN3c2ncc(C(=O)NC3(C(=O)O)CCCCC3)c(C(F)(F)F)n2)c1` [Compound I-3], the negative logarithm of the EC50 (pEC50) (with RSV A2 strain (setting [2]); in assay [1] (setting [3])) was 7.00 to 8.00 in each case.

In the case of `O=C(NC1(C(=O)O)CCCCC1)c1cnc(N2CCc3cc(OCCc4ccccc4)ccc32)nc1C(F)(F)F` [Compound I-4], the pEC50 was 7.00 to 8.00 in the assay with RSV A2 strain (setting [2]) and 5.30 to 7.00 in assay [1] (setting [3]).

Take `N#CCCCCOc1ccc2c(c1)CCN2c1ncc(C(=O)NC2(C(=O)O)CCCCC2)c(C(F)(F)F)n1` [Compound I-5]: the values for the pEC50 (in the assay on RSV A2 strain (setting [2]); in assay [1] (setting [3])) were 7.00 to 8.00 and 5.30 to 7.00, respectively.

Take `COCCCOc1ccc2c(c1)CCN2c1ncc(C(=O)NC2(C(=O)O)CCCCC2)c(C(F)(F)F)n1` [Compound I-7]: the pEC50 in the assay with RSV A2 strain (setting [2]) is 7.00 to 8.00; in assay [1] (setting [3]), 5.30 to 7.00.

As usually defined, the pEC50 is the negative decadic logarithm of the EC50, by convention in mol/L.
